Marks after values point to notes of the source that are not given here. [I] = hypoxanthine (inosine)
Columns and labels:
[1] = Monomer and tetramer formation of IRPs, size-exclusion HPLC; format: physicochemical; conditions: 100 mg/mL in PBS and 0.5M KCl, room temperature, five weeks
Protocol: Solutions were prepared of the by mixing 100 mg/mL of the IRP sequences in PBS and 0.5M KCl and storing at room temperature for three to five weeks. The solutions were subsequently analyzed by size-exclusion HPLC.

[2] = High dosages of IRPs in rats (weight, deaths, histology); format: in vivo, Sprague Dawley rats; conditions: rat; for Heart: Cell Vacuolation, number of animals / Heart: Hemorrhage, number of animals / Heart: Mononuclear Cell Infiltration, number of animals / Heart: Necrosis, number of animals / Heart: No significant changes, number of animals / Liver: Liver changes, number of animals / Liver: Mixed cell infiltration, number of animals / Liver: Necrosis, number of animals / Liver: No significant changes, number of animals / Liver: Vacuolation, number of animals / Right Kidney: Hydronephrosis, number of animals / Right Kidney: Mineralization, number of animals / Right Kidney: Necrosis, number of animals / Right Kidney: No significant changes, number of animals / Right Kidney: Tubular basophilia, number of animals / Right Kidney: Tubular changes, number of animals: 6 animals
Protocol: To test the activity of IRPs at high dosages in rats, IRPs (SEQ ID NO:42 and SEQ ID NO:109) or a control (PBS) were subcutaneously administered to 8-9 weeks old, […], 3, 6, and 9 (n=6 per group). Rats were weighed prior to administration and on days 1, 3, 4, 6, 7, and 9. Organs were harvested at the end of the study, and organ weights and tissues levels of the oligonucleotides were determined. In addition, histolocial evaluation of the liver, kidney, and heart was performed.
Rats were weighed prior to administration and on days 1, 3, 6, 7, and 9. Organs were harvested at the end of the study, and organ weights and tissues levels of the oligonucleotides were determined. In addition, histological evaluation of the liver, kidney, and heart was performed.

[3] = High dosages of IRPs in mice (weight, histology); format: in vivo, BALB/c mice; conditions: for Heart: Chronic inflammation, mean severity score / Heart: Mineralization, mean severity score / Liver: Liver changes, mean severity score / Liver: Mixed cell infiltration, mean severity score / Right Kidney: Tubular changes, mean severity score: 0 = no change to 4 = severe; for Liver: Liver changes, number of animals / Liver: Mixed cell infiltration, number of animals / Liver: No significan changes, number of animals / Right Kidney: No significant changes, number of animals / Right Kidney: Tubular basophilia, number of animals / Right Kidney: Tubular changes, number of animals: 6 animals; for Heart: No significant changes, number of animals: tissue missing in two animals
Protocol: To test the activity of IRPs at high dosages in mice, IRPs or a control (saline) were subcutaneously administered to BALB/c mice at a dosage of 4 mg/kg, 20 mg/kg, 50 mg/kg, or 100 mg/kg on days 1, 4, 7, and 10 (n=5 per group). Mice were weighed prior to administration and on days 2, 4, 7, 9, and 11. Serum cytokines were assayed at two hours post the first and third injections and 24 hours post the fourth injection. Organs were harvested at the end of the study, and organ weights and tissues levels of the oligonucleotides were determined. In addition, histological evaluation of the liver, kidney, and heart was performed.
Mice were weighed prior to administration and on days 1, 3, 4, 6, 7, and 9. Organs were harvested at the end of the study, and organ weights and tissues levels of the oligonucleotides were determined. In addition, histological evaluation of the liver, kidney, and heart was performed.

human B-cells = experiment: Human B-cells cultured in the presence of IRPs, IL-6; conditions: for B-cell stimulatory activity: FIG. 1C, percent IL-6 from CpG-ISS
[4] = 10 mg/kg, 0 = no change to 4 = severe
[5] = 90 mg/kg, 0 = no change to 4 = severe
[6] = Experiment # 3, Max Conc 4.0 uM

5′-TGC TGC TCC TGG AGI GGT GTT GT-3′ (DNA TGCTGCTCCTGGAGNGGTGTTGT; DNA, [I] at 15, backbone and methylation of C not given here) [SEQ ID NO:79]
fraction in monomer form [1]: 100%
Heart: Cell Vacuolation, number of animals ([2]; 10 mg/kg): 0
Heart: Hemorrhage, number of animals ([2]; 10 mg/kg): 0
Heart: Mononuclear Cell Infiltration, number of animals ([2]; 10 mg/kg): 0
Heart: Necrosis, number of animals ([2]; 10 mg/kg): 0
Heart: No significant changes, number of animals ([2]; 10 mg/kg): 6
Liver: Liver changes, number of animals ([2]; 10 mg/kg): 0
Liver: Mixed cell infiltration, number of animals ([2]; 10 mg/kg): 6
Liver: Necrosis, number of animals ([2]; 10 mg/kg): 0
Liver: No significant changes, number of animals ([2]; 10 mg/kg): 0
Liver: Vacuolation, number of animals ([2]; 10 mg/kg): 0
Right Kidney: Hydronephrosis, number of animals ([2]; 10 mg/kg): 0
Right Kidney: Mineralization, number of animals ([2]; 10 mg/kg): 2
Right Kidney: Necrosis, number of animals ([2]; 10 mg/kg): 0
Right Kidney: No significant changes, number of animals ([2]; 10 mg/kg): 1
Right Kidney: Tubular basophilia, number of animals ([2]; 10 mg/kg): 0
Right Kidney: Tubular changes, number of animals ([2]; 10 mg/kg): 5
Liver: Mixed cell infiltration, mean severity score [2, 4]: 1.8
Right Kidney: Mineralization, mean severity score [2, 4]: 1.0
Right Kidney: Tubular changes, mean severity score [2, 4]: 1.1
Heart: cellular vacuolation ([2]; 90 mg/kg): present in some animals
Heart: hemorrhage and necrosis ([2]; 90 mg/kg): noted
Kidney: tubular basophilia ([2]; 90 mg/kg): occurred
Liver: hepatocellular cytoplasmic vacuolation ([2]; 90 mg/kg): hepatocellular cytoplasmic vacuolation
Liver: hepatocellular necrosis ([2]; 90 mg/kg): hepatocellular necrosis
Renal necrosis ([2]; 90 mg/kg): noted
deaths two days after the first dose ([2]; 90 mg/kg SC, n=6): two rats died
deaths two days after the second dose ([2]; 90 mg/kg SC, n=6): one rat died
Heart: Cell Vacuolation, number of animals ([2]; 90 mg/kg): 2
Heart: Hemorrhage, number of animals ([2]; 90 mg/kg): 2
Heart: Mononuclear Cell Infiltration, number of animals ([2]; 90 mg/kg): 0
Heart: Necrosis, number of animals ([2]; 90 mg/kg): 3
Heart: No significant changes, number of animals ([2]; 90 mg/kg): 1
Liver: Liver changes, number of animals ([2]; 90 mg/kg): 3
Liver: Mixed cell infiltration, number of animals ([2]; 90 mg/kg): 3
Liver: Necrosis, number of animals ([2]; 90 mg/kg): 2
Liver: No significant changes, number of animals ([2]; 90 mg/kg): 0
Liver: Vacuolation, number of animals ([2]; 90 mg/kg): 3
Right Kidney: Hydronephrosis, number of animals ([2]; 90 mg/kg): 0
Right Kidney: Mineralization, number of animals ([2]; 90 mg/kg): 1
Right Kidney: Necrosis, number of animals ([2]; 90 mg/kg): 3
Right Kidney: No significant changes, number of animals ([2]; 90 mg/kg): 0
Right Kidney: Tubular basophilia, number of animals ([2]; 90 mg/kg): 2
Right Kidney: Tubular changes, number of animals ([2]; 90 mg/kg): 3
Heart: Cell Vacuolation, mean severity score [2, 5]: 1.5
Heart: Hemorrhage, mean severity score [2, 5]: 3.5
Heart: Necrosis, mean severity score [2, 5]: 2.0
Liver: Liver changes, mean severity score [2, 5]: 1.8
Liver: Mixed cell infiltration, mean severity score [2, 5]: 2.5
Liver: Necrosis, mean severity score [2, 5]: 2.8
Liver: Vacuolation, mean severity score [2, 5]: 2.3
Right Kidney: Mineralization, mean severity score [2, 5]: 2.0
Right Kidney: Necrosis, mean severity score [2, 5]: 4.0
Right Kidney: Tubular basophilia, mean severity score [2, 5]: 2.8
Right Kidney: Tubular changes, mean severity score [2, 5]: 2.0
Heart: Chronic inflammation, number of animals ([3]; 50 mg/kg): 2
Heart: Mineralization, number of animals ([3]; 50 mg/kg): 1
Heart: Chronic inflammation, mean severity score ([3]; 50 mg/kg): 2.0
Heart: Mineralization, mean severity score ([3]; 50 mg/kg): 2.0
Liver: Liver changes, mean severity score ([3]; 50 mg/kg): 1.0
Liver: Mixed cell infiltration, mean severity score ([3]; 50 mg/kg): 1.0
Liver: Liver changes, number of animals ([3]; 50 mg/kg): 6
Liver: Mixed cell infiltration, number of animals ([3]; 50 mg/kg): 4
Liver: No significan changes, number of animals ([3]; 50 mg/kg): 0
Right Kidney: No significant changes, number of animals ([3]; 50 mg/kg): 6
Right Kidney: Tubular basophilia, number of animals ([3]; 50 mg/kg): 0
Right Kidney: Tubular changes, number of animals ([3]; 50 mg/kg): 0
Heart: No significant changes, number of animals ([3]; 50 mg/kg): 1**
Heart: Chronic inflammation, number of animals ([3]; 100 mg/kg): 1
Heart: Mineralization, number of animals ([3]; 100 mg/kg): 2
Heart: Chronic inflammation, mean severity score ([3]; 100 mg/kg): 3.0
Heart: Mineralization, mean severity score ([3]; 100 mg/kg): 2.5
Liver: Liver changes, mean severity score ([3]; 100 mg/kg): 2.0
Liver: Mixed cell infiltration, mean severity score ([3]; 100 mg/kg): 2.0
Right Kidney: Tubular changes, mean severity score ([3]; 100 mg/kg): 2.0
Liver: Liver changes, number of animals ([3]; 100 mg/kg): 6
Liver: Mixed cell infiltration, number of animals ([3]; 100 mg/kg): 6
Liver: No significan changes, number of animals ([3]; 100 mg/kg): 0
Right Kidney: No significant changes, number of animals ([3]; 100 mg/kg): 0
Right Kidney: Tubular basophilia, number of animals ([3]; 100 mg/kg): 0
Right Kidney: Tubular changes, number of animals ([3]; 100 mg/kg): 6
Heart: No significant changes, number of animals ([3]; 100 mg/kg): 1**
Normalized IL-6 Response (Percentage of Positive Control) (human B-cells; Experiment # 1, Max Conc 4.0 uM): 33%
Normalized IL-6 Response (Percentage of Positive Control) (human B-cells; [6]): 18%
Normalized IL-6 Response (Percentage of Positive Control) (human B-cells; Experiment # 11, Max Conc 2.0 uM): 28%
B-cell stimulatory activity (human B-cells): low B-cell stimulatory activity

5′-TGC TGC TCC TGG AGI GGT TG-HEG-T-3′ (DNA TGCTGCTCCTGGAGNGGTTGNT; inosine, internal HEG spacer, chemistry not fully specified) [SEQ ID NO:144]
fraction in monomer form [1]: 100%
Liver: hepatocellular cytoplasmic vacuolation ([2]; 10 mg/kg): hepatocellular cytoplasmic vacuolation
Heart: cellular vacuolation ([2]; 90 mg/kg): present in some animals
Kidney: tubular basophilia ([2]; 90 mg/kg): occurred
Liver: hepatocellular cytoplasmic vacuolation ([2]; 90 mg/kg): hepatocellular cytoplasmic vacuolation
Liver: hepatocellular necrosis ([2]; 90 mg/kg): hepatocellular necrosis
Heart: Chronic inflammation, number of animals ([3]; 100 mg/kg): 1
Heart: Mineralization, number of animals ([3]; 100 mg/kg): 2
Heart: Chronic inflammation, mean severity score ([3]; 100 mg/kg): 3.0
Heart: Mineralization, mean severity score ([3]; 100 mg/kg): 2.5
Liver: Liver changes, mean severity score ([3]; 100 mg/kg): 2.0
Liver: Mixed cell infiltration, mean severity score ([3]; 100 mg/kg): 2.0
Right Kidney: Tubular changes, mean severity score ([3]; 100 mg/kg): 2.0
Liver: Liver changes, number of animals ([3]; 100 mg/kg): 6
Liver: Mixed cell infiltration, number of animals ([3]; 100 mg/kg): 6
Liver: No significan changes, number of animals ([3]; 100 mg/kg): 0
Right Kidney: No significant changes, number of animals ([3]; 100 mg/kg): 0
Right Kidney: Tubular basophilia, number of animals ([3]; 100 mg/kg): 0
Right Kidney: Tubular changes, number of animals ([3]; 100 mg/kg): 6
Heart: No significant changes, number of animals ([3]; 100 mg/kg): 1**
Normalized IL-6 Response (Percentage of Positive Control) (human B-cells; [6]): 10%
B-cell stimulatory activity (human B-cells): low B-cell stimulatory activity

From US8940310B2, “Methods of treatment using TLR7 and/or TLR9 inhibitors” (Dynavax Technologies Corporation, priority 2010, dated 2015)
